Laboratory results as given in US12558424B2, “T cells having enhanced anti-tumor activity” (The United States of America, as represented by the …, priority 2019, dated 2026).
Where two headings read alike, the source gives them in different places.

Columns and labels:
LDH(A) = LDH(A) (Homo sapiens, UniProt P00338); assay: LDH(A) biochemical IC50
LDA(B) = LDA(B) (Homo sapiens, UniProt P07195); assay: LDA(B) biochemical IC50
lactate dehydrogenase = lactate dehydrogenase (Homo sapiens, UniProt P00338); assay: SPR binding (+NADH)
MiaPaCa [1] = assay: MiaPaCa Lactate OP; type: cell-based; conditions: Homo sapiens, MIA PaCa-2; MiaPaCa cells
MiaPaCa [2] = assay: MiaPaCa CTG; type: cell-based; conditions: Homo sapiens, MIA PaCa-2; MiaPaCa cells
A673 [3] = assay: A673 Lactate OP; type: cell-based; conditions: Homo sapiens; A673 cells
A673 [4] = assay: A673 CTG; type: cell-based; conditions: Homo sapiens; A673 cells
[5] = PK AUC after IV and PO dosing; conditions: in vivo
[6] = test system: murine splenic CD8+ T cells; assay: Media measurements of lactate secretion and glucose consumption (YSI 2900 analyzer); type: cell-based, mouse; conditions: IL-2- or IL-21-stimulated cells; NCI-737 1 μM
Method: (§1) Except where otherwise specified, all experiments were performed with murine splenic CD8+ T cells isolated with […] Technologies EasySep™ Mouse CD8+ T Cell Isolation Kit (catalog #19853). Following isolation, cells were resuspended at 1×10^6 cells/ml in T cell culture medium: RPMI 1640 medium (Thermo 11875093) containing 10% fetal bovine serum (FBS), 1× Glutamax (Life Technologies #35050-061), 1 mM sodium pyruvate, 0.1% β-mercaptoethanol, and penicillin/streptomycin. Cells were plated in 24-well tissue culture plates precoated with mouse anti-CD3 (2 μg/ml) and cultured with soluble mouse anti-CD28 (2 μg/ml) for 48 h. After incubation, cells were pooled, washed twice in media, and re-plated at 1×10^6 cells/ml. […] Unless otherwise specified, cells were stimulated for 48 h before being harvested. […]
(§2) Cells were then washed with media supplemented with dialyzed fetal bovine serum (“FBS”) (Thermo-Fischer #A3382001), replated in RPMI 1640 medium containing 10% dialyzed FBS, 1× Glutamax (ThermoFisher #35050061), 1 mM sodium pyruvate, 0.1% β-mercaptoethanol, and penicillin-streptomycin, and re-stimulated with same cytokine treatment for 5 h. […] Cell extracts were analyzed using a quadrupole-orbitrap mass spectrometer (Q Exactive, Thermo Fisher Scientific, San Jose, CA) coupled to hydrophilic interaction chromatography via electrospray ionization. […] Data were analyzed using EL-MAVEN software. […]

[7] = test system: murine splenic CD8+ T cells; assay: LC-MS metabolomics of intracellular metabolites; type: cell-based, mouse; conditions: NCI-737 1 μM
Method: (§3) Except where otherwise specified, all experiments were performed with murine splenic CD8+ T cells isolated with […] Technologies EasySep™ Mouse CD8+ T Cell Isolation Kit (catalog #19853). Following isolation, cells were resuspended at 1×10^6 cells/ml in T cell culture medium: RPMI 1640 medium (Thermo 11875093) containing 10% fetal bovine serum (FBS), 1× Glutamax (Life Technologies #35050-061), 1 mM sodium pyruvate, 0.1% β-mercaptoethanol, and penicillin/streptomycin. Cells were plated in 24-well tissue culture plates precoated with mouse anti-CD3 (2 μg/ml) and cultured with soluble mouse anti-CD28 (2 μg/ml) for 48 h. After incubation, cells were pooled, washed twice in media, and re-plated at 1×10^6 cells/ml. […] Unless otherwise specified, cells were stimulated for 48 h before being harvested. Where noted, cells were treated (1 μM) with a novel, pyrazole-based LDH inhibitor (NCI-737, herein denoted as NCI-737) that was developed under the auspices of the NCI Experimental Therapeutics Program 29.
Cells were then washed with media supplemented with dialyzed fetal bovine serum (“FBS”) (Thermo-Fischer #A3382001), replated in RPMI 1640 medium containing 10% dialyzed FBS, 1× Glutamax (ThermoFisher #35050061), 1 mM sodium pyruvate, 0.1% β-mercaptoethanol, and penicillin-streptomycin, and re-stimulated with same cytokine treatment for 5 h. For ^13C labelling, cells were instead replated in media containing 2 g/L U^13C-glucose (Cambridge Isotope Laboratories #CLM-1396) for 6 h. 3×10^6 cells/replicate (3-4 replicates/treatment) were then transferred to microcentrifuge tubes and centrifuged for 1 min at 6000×g. Room temperature PBS was added to wash cell pellets followed by another round of centrifugation for 1 min. Pellets were then immediately resuspended in 150 μl of ice cold extraction solvent (40:40:20 acetonitrile:methanol:water+0.5% formic acid) for 5 min. After incubation, 13.2 μl of 15% ammonium bicarbonate, was added and samples were centrifuged for 15 min at maximum speed at 4° C. Supernatant containing cellular metabolites was transferred to a fresh tube, frozen in dry ice, and stored at −80° C. Cell extracts were analyzed using a quadrupole-orbitrap mass spectrometer (Q Exactive, Thermo Fisher Scientific, San Jose, CA) coupled to hydrophilic interaction chromatography via electrospray ionization. LC separation was on a XBridge BEH Amide column (2.1 mm×150 mm, 2.5 μm particle size; Waters, Milford, MA) using a gradient of solvent A (20 mM ammonium acetate, 20 mM ammonium hydroxide in 95:5 water: acetonitrile, pH 9.45) and solvent B (acetonitrile). The flow rate was 150 μl/min, column temperature was 25° C., autosampler temperature was 5° C., and injection volume was 10 μL. The LC gradient was: 0 min, 90% B; 2 min, 85% B; 3 min, 75% B; 7 min, 75% B; 8 min, 70% B; 9 min, 70% B; 10 min, 50% B; 12 min, 50% B; 13 min, 25% B; 14 min, 25% B; 16 min, 0% B; 21 min, 0% B; 22 min, 90% B; 25 min, 90% B. Autosampler temperature was 5° C., and injection volume was 10 μl. The mass spectrometer was operated in negative ion mode to scan from m/z 70 to 1000 at 1 Hz and a resolving power of 140,000 45. Data were analyzed using EL-MAVEN software. Isotope labeling was corrected for natural 13C abundance47. Media measurements were acquired using a YSI 2900 Series Biochemical Analyzer (Xylem).

[8] = test system: murine splenic CD8+ T cells; assay: U-13C-glucose tracer study; type: cell-based, mouse; conditions: NCI-737 1 μM
Method: as §1, §2

mouse CD8+ T cells = assay: Seahorse mitochondrial stress test (OCR, ECAR, SRC), mouse CD8+ T cells; type: cell-based; conditions: NCI-737 1 μM
Method: as §3
The oxygen consumption rates (OCR) and extracellular acidification rates (ECAR) were recorded using a Seahorse XFe96 Analyzer (Agilent). Cells were washed and resuspended in Agilent XF Assay Medium supplemented with 25 mM glucose, 1 mM sodium pyruvate, and 2 mM L-Glutamine. Cells were plated on Seahorse Assay plates at 0.2×10^6 cells/well and during the assay were exposed to 1 μM oligomycin, 1.5 μM trifluoromethoxy carbonylcyanide phenylhydrazone (“FCCP”), 100 nM rotenone, and 1 μM antimycin A, as indicated.

human CD8+ T cells = assay: Seahorse mitochondrial stress test (OCR, ECAR, SRC), human CD8+ T cells; type: cell-based; conditions: both IL-21 and IL-2
[9] = test system: murine splenic CD8+ T cells; assay: RNA-Seq gene expression; type: cell-based, mouse
Method: as §3
Total RNA was extracted using an RNA miniprep kit (Zymo Research), and 500 ng RNA was used for library preparation. RNA-Seq libraries were prepared using mRNA HyperPrep Kits (KK8580, Kapa Biosystems) and indexed with NEXTflex DNA Barcodes-24. After final amplification, samples were loaded to 2% E-Gel pre-cast gels (ThermoFisher), and 250 to 400 bp DNA fragments were recovered and purified with Zymoclean Gel DNA Recovery Kit […]. After quantification by Qubit (Invitrogen), barcoded samples were mixed and sequenced on an Illumina HiSeq3000 platform. Sequenced reads (50 bp, single end) were obtained with the Illumina CASAVA pipeline and mapped to the mouse genome mm10 (GRCm38, December 2011) using Bowtie 2.2.649 and Tophat 2.2.149. Only uniquely mapped reads were retained. Raw counts that fell on exons were calculated and normalized by using RPKM (Reads Per Kilobase per Million mapped reads). Differentially expressed genes were identified with the R Bioconductor package edgeR50, and the expression heat maps were generated with the R package “pheatmap”. Metabolic genes were extracted from the KEGG pathway database, including those corresponding to Fatty Acid Biosynthesis/Degradation, Ox/Phos, Pyruvate metabolism, amino sugar and nucleotide sugar metabolism, pentose phosphate pathway, the citric acid cycle, and glycolysis/gluconeogenesis. Metabolic genes that overlapped with RNA-Seq data were subsequently shown in heat maps.

pmel-1 CD8+ T cells = assay: Flow cytometry of pmel-1 CD8+ T cell differentiation (CD44, CD62L, Sca-1); type: cell-based, mouse; conditions: NCI-737 1 μM
B16 melanoma (B16KVP) = assay: Mouse tumor model and adoptive transfer; type: in vivo
[10] = PO 50 mg/kg, read-out: PO 50 mg/kg AUC

Sequence of LDA(B) (P07195 whole entry): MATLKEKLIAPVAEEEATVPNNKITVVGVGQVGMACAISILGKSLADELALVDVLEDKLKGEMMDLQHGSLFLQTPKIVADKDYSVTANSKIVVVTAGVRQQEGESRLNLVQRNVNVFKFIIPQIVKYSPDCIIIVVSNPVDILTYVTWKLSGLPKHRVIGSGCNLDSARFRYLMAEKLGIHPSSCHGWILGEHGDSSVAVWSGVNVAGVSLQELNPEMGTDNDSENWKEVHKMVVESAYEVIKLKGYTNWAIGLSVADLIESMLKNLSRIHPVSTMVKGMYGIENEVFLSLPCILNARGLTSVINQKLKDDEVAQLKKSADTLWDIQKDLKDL

## Cc1ccc(C#Cc2cccc(-c3nn(-c4nc(C(=O)O)cs4)c(CC4CC4)c3Cc3ccc(S(N)(=O)=O)c(F)c3)c2)s1 [Compound 420737]
LDH(A)
  IC50: 68 nM
LDA(B)
  IC50: 44 nM
Lactate dehydrogenase
  SPR ka (+NADH): 16000 M⁻¹ s⁻¹
  SPR kd (+NADH): <1e-06 s⁻¹
MiaPaCa [1]
  EC50: 236 nM
MiaPaCa [2]
  EC50: 319 nM
A673 [3]
  EC50: 344 nM
A673 [4]
  EC50: 221 nM
[5]; IV 10 mg/kg
  AUC: 16500 ng·h/mL
[5]; [10]
  AUC: 53400 ng·h/mL
[6]
  glucose consumption: reduced
  lactate secretion: reduced
[7]; IL-2-treated cells
  increase in the NADH/NAD+ ratio: ~100 fold
  intracellular pyruvate: markedly increased
[7]; IL-2 setting
  2-hydroxyglutarate (2HG): decreased
  increase in glycolytic intermediates and FGAR: > 4 fold
[7]; IL-21 stimulated cells
  NADH/NAD+ ratio: slightly raised
  intracellular pyruvate levels: did not alter
  metabolite levels: little effect
[7]; cells stimulated with either IL-2 or IL-21
  lactate in cells: lowered
[8]; IL-2-treated cells
  relative contribution of glucose into the TCA cycle: higher relative contribution
[8]; IL-21-stimulated cells
  isotopomer distribution: little effect
Mouse CD8+ T cells; IL-2-treated cells
  ECAR: decreased
  OCR: significantly increased
  SRC: significantly increased
Mouse CD8+ T cells; IL-21-treated cells
  ECAR: did not significantly alter
  SRC: did not significantly alter
  basal OCR: did not significantly alter
Human CD8+ T cells
  ECAR: decreased
  SRC: raised
[9]; IL-2-induced, addition of NCI-737
  transcripts for exhaustion-associated transcription factors Nr4a1, Nr4a2, Nrfa3, Prdm1: decreased by the addition of NCI-737 to levels similar to that observed in cells cultured with IL-21
[9]; IL-2 context, NCI-737 1 μM
  induction of Ldha by IL-2: prevented the induction
  levels of Ldhb: increased
[9]; induced by IL-2, NCI-737
  XBP1 transcript expression: inhibited
[9]; induced by IL-21, addition of NCI-737
  transcripts for exhaustion markers Lag3, Pdcd1, Cd244, Havcr2: repressed
pmel-1 CD8+ T cells; IL-2-treated pmel-1 cells
  TSCM cells: restored TSCM cells in IL-2-treated cells to the levels observed with IL-21
pmel-1 CD8+ T cells; IL-21-treated pmel-1 cells
  TSCM cells: synergized with IL-21 to generate TSCM cells
B16 melanoma (B16KVP); IL-2-treated cells, NCI-737 1 μM only during in vitro expansion
  antitumor effect of adoptively transferred pmel-1 CD8+ T cells: augmented the antitumor effect to the level of IL-21-treated cells
B16 melanoma (B16KVP); cells generated with IL-21 and NCI-737 (1 μM, in vitro only)
  antitumor effect of adoptively transferred pmel-1 CD8+ T cells: the most potent

## Cc1ccc(C#Cc2cc(-c3nn(-c4nc(C(=O)O)cs4)c(CC4CC4)c3Cc3ccc(S(N)(=O)=O)c(F)c3)ccc2F)s1 [Compound 390006]
LDH(A)
  IC50: 80 nM
LDA(B)
  IC50: 53 nM
Lactate dehydrogenase
  SPR ka (+NADH): 15000 M⁻¹ s⁻¹
  SPR kd (+NADH): <1e-06 s⁻¹
MiaPaCa [1]
  EC50: 283 nM
MiaPaCa [2]
  EC50: 355 nM
A673 [3]
  EC50: 349 nM
A673 [4]
  EC50: 305 nM
[5]; IV 10 mg/kg
  AUC: 10600 ng·h/mL
[5]; [10]
  AUC: 31400 ng·h/mL
